Measured values published in patent US9226914B2, “Methods for promoting neuronal development and/or health” (Mead Johnson Nutrition Company, priority 2013, dated 2016).

How the values were obtained:
[1] = Precipitation on dilution of stock into experiment bath solution; format: physicochemical; conditions: 1 M stock in 100% DMSO; bath 1, 3 and 5 mM
Procedure: All compounds were recorded with a fixed DMSO concentration of 0.1% throughout the experiments. Due to the fact that alpha-lipoic acid was investigated at concentrations between 100 μM and 5 mM, the solvent concentration reached 0.7%. […] Working solutions of all compounds were freshly prepared for each experiment day and between 0.9 and 10 μL were applied to a 1 mL experiment bath solution.

[2] = tested on: frontal cortex neuronal networks (cortical network activity in vitro); experiment: Acute effects on cortical neuronal network activity on MEA neurochips (spike train analysis); format: cell-based, mice
Procedure: The experiments were performed according to the SOPs, “SOP Preparation Frontal Cortex Mouse—Serum (Rev. 07 2012 Mar. 6 eng)”, “SOP Solutions for Neuronal Cell Culture (Rev. 04 2009 Nov. 18 eng)”, “SOP Cleaning and Substrate Preparations of MEAs (Rev. 03 2009 Apr. 26 eng)”, “SOP Feeding neuronal cell culture”, “SOP Cell culture preparation MEAs”, “SOP Plexon Recording” and “SOP Plexon Data Analysis”.
The microelectrode array neurochips (“MEA neurochips”) were provided by the Center for Network Neuroscience (CNNS) at the University of North Texas. These 5×5 cm^2 glass chips have a dual recording matrix with 32 passive electrodes per matrix and indium tin oxide conductors. The hydrophobic insulation material surface was activated by a brief butane flame pulse through a stainless steel mask. Thus, cell attachment on a confined region, a 5 mm diameter centered on the electrode array, is ensured. The activated face regions were coated with 25 μg/mL poly-D-lysine (30-70 kD) and incubated […] in 16 μg/mL laminin for 3 hours right before the preparation.
Frontal cortex tissue was harvested from embryonic day 15 chr:NMRI mice. Mice were sacrificed by cervical dislocation according to the German Animal Protection Act Section 4. Cultures on MEAs were incubated at 37 deg. C. in a 10% CO2 atmosphere until ready for use, which usually is four weeks to three months after seeding. Culture media were replenished two times a week with DMEM containing 10% heat inactivated horse serum. The developing co-cultures were treated with the mitosis inhibitor 5-fluoro-2′-deoxyuridine (25 μMolar) and uridine (63 μMolar) for 48 hours on day 5 after seeding to prevent further glial proliferation.
After establishing a stable activity pattern after 4 weeks, the neuronal networks on MEA chips were employed for substance testing. For this example, cultures between 25 and 38 days in vitro were used. For extracellular recording, MEA neurochips were placed into sterilized constant-bath recording chambers and maintained at 37 deg. C. Recordings were made in DMEM including 10% heat inactivated horse serum. The pH was maintained at 7.4 with a continuous stream of filtered, humidified airflow with 10% CO2. Sets of preamplifiers were positioned to either side of the recording chamber. Recording was performed with the multichannel acquisition processor system, a computer-controlled 64-channel amplifier system (Plexon, Inc., Dallas, Tex., USA) providing programmable amplification, filtering, switching, and digital signal processing of microelectrode signals. The total system gain used was 10K with a simultaneous 40 kHz sampling rate. The signals routinely recorded by these neurochips are located in a range of 15-1800 microV.
The multichannel signal acquisition system delivered single neuron spike data. Spike identification and separation were accomplished with a template-matching algorithm in real time. This allows for the extracellular recording from action potentials from a maximum of 256 neurons simultaneously.
The action potentials, or spikes, were recorded in spike trains and are clustered in so-called bursts. Bursts were quantitatively described via direct spike train analysis using the program NeuroEXplorer (Plexon Inc., Dallas, Tex., USA) and in house programs. Bursts were defined by the beginning and the end of short spike invents. Maximum spike intervals defining the start of a burst were 40 ms and maximum intervals to end a burst from 200 ms.
All compounds were recorded with a fixed DMSO concentration of 0.1% throughout the experiments. Due to the fact that alpha-lipoic acid was investigated at concentrations between 100 μM and 5 mM, the solvent concentration reached 0.7%.
The high content analysis of the network activity patterns provides a multiparametric description characterized in four activity categories: general activity, burst structure, synchronicity and oscillatory behavior. […]

[3] = tested on: neuronal activity (spike rate and burst rate); experiment: Chronic effects of hBDNF on neuronal activity development in the MEA system; format: cell-based; conditions: 20 ng/ml, FIG. 15
Excerpt: For neurotrophic factors such as hBDNF, NeuroProof tested the chronic effects in the MEA system (See FIG. 15).

With O=C(O)CCCCC1CCSS1 (stereo not drawn) [ALA, alpha-lipoic acid] the precipitation during dilution [1] was “precipitation of alpha-lipoic acid occurred at the three highest concentrations”, the “activity reached (spike rate fit)” value ([2]; 100 μM alpha-lipoic acid, FIG. 6) was 91.5 % of control (0.1% DMSO) activity and the “activity reached (spike rate fit)” value ([2]; 1 mM alpha-lipoic acid, FIG. 6) was 83.6 % of control (0.1% DMSO) activity. For the same molecule, the “activity reached (spike rate fit)” value ([2]; 5 mM alpha-lipoic acid, FIG. 6) was 43.9 % of control (0.1% DMSO) activity, the “concentration at which general activity is affected (spike rate fit)” value ([2]; FIG. 6) was “above 100 μM” and the EC50 ([2]; Mus musculus, concentration of ALA, FIGS. 9 and 10, read-out: EC50 for the decline of activity) was 5.03 mM. For the same molecule, the “Hill coefficient (nH) of the decline of activity” value ([2]; concentrations above 100 μM ALA, higher value = steeper slope) was 1.66 and the “concentration at which general activity is reduced” value ([2]; experimental concentrations) was at least 1 mM.
With “hBDNF: Human recombinant brain derived neurotrophic factor, PeproTech #450-02” the “acceleration of neuronal activity development” value ([3]; chronic) was “approximately one week”, the “general activity (spike rate, burst rate), chronic treatment” value ([3]; versus vehicle) was “increases the general activity at every recorded time point” and the “effect on general activity” value ([2]; above 500 pg/mL, tested 10 pg/mL to 50 μg/mL) was “only shows slight effects on the general activity which is numerically increased”. The “EC50 on spike rate” value ([2]; acute application) was 5.28 ng/mL.
With CC/C=C\C/C=C\C/C=C\C/C=C\C/C=C\C/C=C\CCC(=O)O [DHA, docosahexaenoic acid] the “activity (spike rate fit), activity decline reached” value ([2]; 100 μM DHA, highest tested concentration, FIG. 5) was 63.6 % of native activity and the “concentration at which spike rates and burst rates are reduced” value ([2]; increasing effects at higher concentrations) was at least 100 pM.
